Tests used:
THP-1 cells = experiment: TPA-induced differentiation of THP-1 cells to macrophage-like cells (ITGAM immunoblot, CD68 immunofluorescence); format: cell-based, human; conditions: 100 nM TPA
Experimental: (§1) Phorbol ester (12-O-Tetradecanoylphorbol 13-acetate: TPA) is an activator of protein kinase C (PKC) that has been frequently used for inducing the differentiation of different cell types, including myeloid cells. Activation of human monocytic cells affects ALOX expression. Therefore, we induced differentiation of monocytic THP-1 cells to macrophage-like cells (MLCs) with 100 nM TPA [91, 92] and monitored the ALOX12 protein level as well as nucleo-cytoplasmic translocation of ALOX12-AS1-201. […] We concurrently monitored expression of the integrin subunit a M (ITGAM), also known as CD11b, which regulates myeloid cell polarization and is expressed in macrophages to facilitate adhesion, migration, chemotaxis, and accumulation during inflammation. […] CD68 is a transmembrane glycoprotein that is mainly located in the endosomal/lysosomal compartment but can rapidly shuttle to the cell surface in myeloid cells. […] Based on these observations, we performed nuclear and cytoplasmic fractionation at 72 hours of TPA treatment.
(§2) Relative quantification of proteins was performed as described previously. […] The immunoblots were imaged using a ChemiDoc XRS+ system (Bio-Rad) and band intensities were quantified using ImageJ (version 1.48) Software. […]

ALOX12 AS1-201 = experiment: Multiplex RT-PCR of ALOX12-AS1-201 in TPA-treated THP-1 derived MLCs; format: cell-based, human; conditions: TPA treated (72 hours) MLCs vs vehicle treated THP-1 cells
Experimental: (§3) Phorbol ester (12-O-Tetradecanoylphorbol 13-acetate: TPA) is an activator of protein kinase C (PKC) that has been frequently used for inducing the differentiation of different cell types, including myeloid cells. Activation of human monocytic cells affects ALOX expression. Therefore, we induced differentiation of monocytic THP-1 cells to macrophage-like cells (MLCs) with 100 nM TPA [91, 92] and monitored the ALOX12 protein level as well as nucleo-cytoplasmic translocation of ALOX12-AS1-201. […] We concurrently monitored expression of the integrin subunit a M (ITGAM), also known as CD11b, which regulates myeloid cell polarization and is expressed in macrophages to facilitate adhesion, migration, chemotaxis, and accumulation during inflammation. […]
(§4) Total RNA from different cell lines was extracted with Trizol reagent (Catalog number: 15596026; ThermoFisher Scientific, Canada) as per the manufacturer's recommended protocol. […] Absolute quantification of ALOX12-AS1 lncRNA isoforms was performed in a Mastercycler®ep realplex real-time PCR system (Eppendorf, Hamburg, Germany) using SYBR green dye (Catalog number: S7563; ThermoFisher Scientific). […] Real-time PCR data quality control calculations were determined by the SAS program as described previously and the calculated PCR efficiency was between 95%-99%. […] Results were expressed as copy number of specific isoforms per 100 ng of total RNA.

[1] = system: ALOX12 protein level in THP-1 cells; experiment: ALOX12 protein level in TPA-treated THP-1 cells (immunoblot); format: cell-based, human
Experimental: as §1, §2

ALOX12 mRNA [2] = experiment: Multiplex RT-PCR of ALOX12 mRNA in TPA-treated THP-1 derived MLCs; format: cell-based, human; conditions: TPA treated (72 hours) MLCs vs vehicle treated THP-1 cells
Experimental: as §3, §4

[3] = system: ALOX12 protein level in HEK293 cells; experiment: ALOX12 protein level in HEK293 cells (immunoblot); format: cell-based, human; conditions: HEK293 cells, 10 μM TPA, 1 hour, vs vehicle
Experimental: As an alternative approach, multiple isoform-specific oligonucleotides (ASOs) complementary to different regions of ALOX12-AS1-201/202 were designed (FIG. 7A-C).
Relative quantification of proteins was performed as described previously [35, 106]. The cell lysates were prepared in 1×RIPA lysis and extraction buffer (catalogue number: 89900, ThermoFisher Scientific) supplemented with 1× Halt protease and phosphatase inhibitor cocktail (catalogue number: 78441, ThermoFisher Scientific). The protein lysates were denatured in Laemmli buffer containing 2% SDS, 10% glycerol, 0.002% bromophenol blue, 0.75 M Tris-HCl pH 6.8, and 100 mM DTT. The immunoblots were imaged using a ChemiDoc XRS+ system (Bio-Rad) and band intensities were quantified using ImageJ (version 1.48) Software [107]. Due to the possibility of inconsistency in the relative expression of housekeeping genes, we normalized all proteins of interest based on the intensity of the Oriole-stained protein profile [92].

ALOX12 mRNA [4] = conditions: A431 cells, time-dependent; cited from earlier work
ALOX12-AS1-201 lncRNA = experiment: Nucleo-cytoplasmic translocation of ALOX12-AS1-201 in THP-1 cells (FISH, fractionation, quantitative RT-PCR); format: cell-based, human
Experimental: Therefore, we induced differentiation of monocytic THP-1 cells to macrophage-like cells (MLCs) with 100 nM TPA [91, 92] and monitored the ALOX12 protein level as well as nucleo-cytoplasmic translocation of ALOX12-AS1-201. […] Based on these observations, we performed nuclear and cytoplasmic fractionation at 72 hours of TPA treatment.
Total RNA from different cell lines was extracted with Trizol reagent (Catalog number: 15596026; ThermoFisher Scientific, Canada) as per the manufacturer's recommended protocol. Total RNA (1-5 μg) was treated with RNase-free DNase I (Catalog number: M0303, New England Biolabs Inc., USA) at 37° C. for 15 min, subsequently heat-inactivated at 75° C. for 10 min and used for cDNA synthesis. […] Absolute quantification of ALOX12-AS1 lncRNA isoforms was performed in a Mastercycler®ep realplex real-time PCR system (Eppendorf, Hamburg, Germany) using SYBR green dye (Catalog number: S7563; ThermoFisher Scientific). […] Real-time PCR data quality control calculations were determined by the SAS program as described previously [101] and the calculated PCR efficiency was between 95%-99%. Quantitative RT-PCR was conducted for different cell-line derived RNAs, and the specificity of each amplified product was confirmed by melting curve analysis. Results were expressed as copy number of specific isoforms per 100 ng of total RNA.

In the case of `CCCCCCCCCCCCCC(=O)O[C@@H]1[C@@H](C)[C@@]2(O)[C@@H](C=C(CO)C[C@]3(O)C(=O)C(C)=C[C@@H]23)[C@@H]2C(C)(C)[C@]12OC(C)=O` [TPA, 12-O-Tetradecanoylphorbol 13-acetate], the ITGAM expression (THP-1 cells; immunoblot) is reported as “expressed at 72 hours”, the “CD68 expression and localization” value (THP-1 cells; immunofluorescence) is reported as “gradually increasing expression and translocation of CD68 to endosomal structures” and the “ALOX12 AS1-201 level” value (ALOX12 AS1-201) is reported as “relatively unaltered”. For the same compound, the ALOX12 protein levels ([1]; THP-1 cells, 100 nM TPA, treatment period 1-72 h, immunoblot) was “dramatically reduced”, the ALOX12 protein levels ([1]; TPA-differentiated MLCs, 100 nM, 72 hours, vs vehicle (DMSO) treated THP-1 cells) was “concomitant decrease” and the “ALOX12 mRNA level” value (ALOX12 mRNA [2]) was “relatively unaltered”. The ALOX12 protein level [3] was “significant reduction”, the “expression of ALOX12 mRNA” value (ALOX12 mRNA [4]) was “increased” and the “time to translocation of ALOX12-AS1-201 lncRNA to the cytosol” value (ALOX12-AS1-201 lncRNA; THP-1 cells, 100 nM TPA, FISH) was at most 1 h. For the same compound, the ALOX12-AS1-201 cytosolic abundance (ALOX12-AS1-201 lncRNA; TPA-differentiated MLCs, 72 hours, vs vehicle (DMSO) treated THP-1 cells, quantitative RT-PCR) was “significant increase”.
